Test results as given in US8394848B2, “Compounds that modulate intracellular calcium” (Calcimedica, Inc., priority 2008, dated 2013).

What follows are compounds tested on JR251 or RBL cells (assay: Store-operated calcium entry, either JR251 or RBL cells, or both).
Type: cell-based
Method in brief: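 FLIPR calcium-entry readout in fluo-4-loaded cells held in Ca2+-free HBSS before calcium add-back. For RBL-2H3, store depletion used thapsigargin for 25 min after a 5 min compound pre-incubation, and IC50 was based on the 7 s Upslope. For Orai1/STIM1 stable cells, compound was pre-incubated 30 min and IC50 was based on Peak-Basal.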

SMILES | IC50 [µM]
COC1CCCC(C(=O)Nc2scc(-c3ccc(Br)cc3)c2C(=O)O)C1 (stereo not shown) [4-(4-bromophenyl)-2-(3-methoxycyclohexanecarboxamido)thiophene-3-carboxylic acid] | < 10
O=C(Nc1scc(-c2ccc(Cl)cc2)c1C(=O)O)c1cc2sccc2[nH]1 [4-(4-chlorophenyl)-2-(4H-thieno[3,2-b]pyrrole-5-carboxamido)thiophene-3-carboxylic acid] | < 10
Cc1ccc(-c2csc(NC(=O)c3nc4ccccc4o3)c2C(=O)O)c(Cl)c1 [2-(benzo[d]oxazole-2-carboxamido)-4-(2-chloro-4-methylphenyl)thiophene-3-carboxylic acid] | < 10
O=C(CSc1ccccc1)Nc1scc(-c2ccc(Br)cc2)c1C(=O)O [4-(4-bromophenyl)-2-(2-(phenylthio)acetamido)thiophene-3-carboxylic acid] | < 10
O=C(Nc1scc(-c2ccc(F)c(O)c2F)c1C(=O)O)c1nc2ccccc2o1 [2-(benzo[d]oxazole-2-carboxamido)-4-(2,4-difluoro-3-hydroxyphenyl)thiophene-3-carboxylic acid] | < 10
O=C(Nc1scc(-c2cc3cccc(O)c3o2)c1C(=O)O)c1cc2ccccn2n1 [4-(7-hydroxybenzofuran-2-yl)-2-(pyrazolo[1,5-a]pyridine-2-carboxamido)thiophene-3-carboxylic acid] | < 10
O=C(CCc1ccco1)Nc1scc(-c2ccc(Br)cc2)c1C(=O)O [4-(4-bromophenyl)-2-(3-(furan-2-yl)propanamido)thiophene-3-carboxylic acid] | < 10
O=C(Nc1scc(-c2ccc(Cl)cc2F)c1C(=O)O)c1nc2cccc(F)c2s1 [4-(4-chloro-2-fluorophenyl)-2-(7-fluorobenzo[d]thiazole-2-carboxamido)thiophene-3-carboxylic acid] | < 10
O=C(Nc1scc(-c2ccc(Cl)c(F)c2F)c1C(=O)O)c1nc2ccccc2s1 [2-(benzo[d]thiazole-2-carboxamido)-4-(4-chloro-2,3-difluorophenyl)thiophene-3-carboxylic acid] | < 10
O=C(Nc1scc(-c2cc3cc(Cl)ccc3o2)c1C(=O)O)c1cc2ccccc2o1 [2-(benzofuran-2-carboxamido)-4-(5-chlorobenzofuran-2-yl)thiophene-3-carboxylic acid] | < 10
O=C(O)c1c(-c2ccc(Cl)cc2)csc1NC(=O)C1Cc2ccccc2S1 (stereo not shown) [4-(4-chlorophenyl)-2-(2,3-dihydrobenzo[b]thiophene-2-carboxamido)thiophene-3-carboxylic acid] | < 10
Cc1ccc(-c2csc(NC(=O)c3scc(S(=O)(=O)c4ccc(Cl)cc4)c3C)c2C(=O)O)cc1 [2-(4-(4-chlorophenylsulfonyl)-3-methylthiophene-2-carboxamido)-4-p-tolylthiophene-3-carboxylic acid] | < 10
O=C(Nc1scc(-c2ccc3c(c2)CCC3)c1C(=O)O)c1cc2ccccc2o1 [2-(benzofuran-2-carboxamido)-4-(2,3-dihydro-1H-inden-5-yl)thiophene-3-carboxylic acid] | < 10
COc1cc(Br)cc2cc(-c3csc(NC(=O)c4cc5ccccc5o4)c3C(=O)O)oc12 [2-(benzofuran-2-carboxamido)-4-(5-bromo-7-methoxybenzofuran-2-yl)thiophene-3-carboxylic acid] | < 10
O=C(O)c1c(-c2ccc(Cl)cc2)csc1NC(=O)C1CCc2ccccc2C1 (stereo not shown) [4-(4-chlorophenyl)-2-(1,2,3,4-tetrahydronaphthalene-2-carboxamido)thiophene-3-carboxylic acid] | < 10
O=C(Nc1scc(-c2ccc(Cl)cc2)c1C(=O)O)c1cnn(-c2ccccc2)c1C(F)(F)F [4-(4-chlorophenyl)-2-(1-phenyl-5-(trifluoromethyl)-1H-pyrazole-4-carboxamido)thiophene-3-carboxylic acid] | < 10
O=C(Nc1scc(-c2ccc(Br)cc2)c1C(=O)O)OCc1ccccc1 [2-(benzyloxycarbonylamino)-4-(4-bromophenyl)thiophene-3-carboxylic acid] | < 10
Cc1cccc2nc(C(=O)Nc3scc(-c4ccc(Cl)cc4)c3C(=O)O)c(F)n12 [4-(4-chlorophenyl)-2-(3-fluoro-5-methylimidazo[1,2-a]pyridine-2-carboxamido)thiophene-3-carboxylic acid] | < 10
CC(C)(CC(=O)Nc1scc(-c2ccc(Cl)cc2)c1C(=O)O)c1ccccc1 [4-(4-chlorophenyl)-2-(3-methyl-3-phenylbutanamido)thiophene-3-carboxylic acid] | < 10
O=C(NCc1ccccc1)Nc1scc(-c2ccc(Cl)cc2)c1C(=O)O [2-(3-benzylureido)-4-(4-chlorophenyl)thiophene-3-carboxylic acid] | < 10
COc1cc(C)c(-c2csc(NC(=O)c3cc4ccccc4o3)c2C(=O)O)c(C)c1 [2-(benzofuran-2-carboxamido)-4-(4-methoxy-2,6-dimethylphenyl)thiophene-3-carboxylic acid] | < 10
O=C(Nc1scc(-c2ccc(Br)cc2)c1C(=O)O)c1cnc2ccccc2n1 [4-(4-bromophenyl)-2-(quinoxaline-2-carboxamido)thiophene-3-carboxylic acid] | < 10

SMILES | IC50 [µM]
O=C(Nc1scc(OC(=O)c2cc3ccccc3o2)c1C(=O)O)OCc1ccccc1 [4-(benzofuran-2-carbonyloxy)-2-(benzyloxycarbonylamino)thiophene-3-carboxylic acid] | < 10
Cc1ccc(-c2csc(NC(=O)c3cc4cccc(O)c4o3)c2C(=O)O)c(F)c1F [4-(2,3-difluoro-4-methylphenyl)-2-(7-hydroxybenzofuran-2-carboxamido)thiophene-3-carboxylic acid] | < 10
O=C(Nc1scc(-c2ccc(Cl)cc2)c1C(=O)O)/C(F)=C/c1ccccc1Cl [(Z)-4-(4-chlorophenyl)-2-(3-(2-chlorophenyl)-2-fluoroacrylamido)thiophene-3-carboxylic acid] | < 10
O=C(Nc1scc(-c2ccc(OC(F)(F)F)cc2)c1C(=O)O)c1nc2ccccc2o1 [2-(benzo[d]oxazole-2-carboxamido)-4-(4-(trifluoromethoxy)phenyl)thiophene-3-carboxylic acid] | < 10
O=C(Nc1scc(-c2ccc(Br)cc2)c1C(=O)O)c1cccnc1 [4-(4-bromophenyl)-2-(nicotinamido)thiophene-3-carboxylic acid] | < 10
O=C(Nc1scc(-c2ccc(Cl)cc2)c1C(=O)O)c1cc2ccccc2nn1 [4-(4-chlorophenyl)-2-(cinnoline-3-carboxamido)thiophene-3-carboxylic acid] | < 10
O=C(CCc1ccccc1)Nc1scc(-c2ccc(O)cc2)c1C(=O)O [4-(4-hydroxyphenyl)-2-(3-phenylpropanamido)thiophene-3-carboxylic acid] | < 10
O=C(O)c1c(-c2ccc(Cl)cc2)csc1NC(=O)C(F)Cc1ccc(F)cc1Cl (stereo not shown) [2-(3-(2-chloro-4-fluorophenyl)-2-fluoropropanamido)-4-(4-chlorophenyl)thiophene-3-carboxylic acid] | < 10
Cc1ccc(-c2csc(NC(=O)/C=C/c3ccco3)c2C(=O)O)cc1 [(E)-2-(3-(furan-2-yl)acrylamido)-4-p-tolylthiophene-3-carboxylic acid] | < 10
Cc1c(-c2csc(NC(=O)c3cc4ccccc4o3)c2C(=O)O)ccc(Cl)c1Cl [2-(benzofuran-2-carboxamido)-4-(3,4-dichloro-2-methylphenyl)thiophene-3-carboxylic acid] | < 10
Cc1ccc(-c2csc(NC(=O)c3ccc4snnc4c3)c2C(=O)O)c(F)c1F [2-(benzo[d][1,2,3]thiadiazole-5-carboxamido)-4-(2,3-difluoro-4-methylphenyl)thiophene-3-carboxylic acid] | < 10
O=C(CSc1ccccc1)Nc1scc(-c2ccc(C(F)(F)F)cc2)c1C(=O)O [2-(2-(phenylthio)acetamido)-4-(4-(trifluoromethyl)phenyl)thiophene-3-carboxylic acid] | < 10
O=C(Nc1scc(-c2ccc(Br)cc2)c1C(=O)O)c1cnccn1 [4-(4-bromophenyl)-2-(pyrazine-2-carboxamido)thiophene-3-carboxylic acid] | < 10
O=C(Nc1scc(-c2ccc(Cl)cc2)c1C(=O)O)c1ccc(Cl)nn1 [4-(4-chlorophenyl)-2-(6-chloropyridazine-3-carboxamido)thiophene-3-carboxylic acid] | < 10
O=C(Nc1scc(-c2ccc(Cl)c(F)c2)c1C(=O)O)c1nc2c(F)cccc2o1 [4-(4-chloro-3-fluorophenyl)-2-(4-fluorobenzo[d]oxazole-2-carboxamido)thiophene-3-carboxylic acid] | < 10
O=C(Nc1scc(-c2cc3cccc(OCc4ccccc4)c3o2)c1C(=O)O)c1cc2ccccc2o1 [2-(benzofuran-2-carboxamido)-4-(7-(benzyloxy)benzofuran-2-yl)thiophene-3-carboxylic acid] | < 10
COc1c(Cl)ccc(-c2csc(NC(=O)c3cc4ccccc4o3)c2C(=O)O)c1Cl [2-(benzofuran-2-carboxamido)-4-(2,4-dichloro-3-methoxyphenyl)thiophene-3-carboxylic acid] | < 10
O=C(Nc1scc(-c2ccc(Cl)cc2)c1C(=O)O)c1cc(-c2ccccc2)on1 [4-(4-chlorophenyl)-2-(5-phenylisoxazole-3-carboxamido)thiophene-3-carboxylic acid] | < 10
O=C(Nc1scc(-c2ccc(Cl)cc2)c1C(=O)O)c1ccc(-c2cccs2)s1 [2-(2,2′-bithiophene-5-carboxamido)-4-(4-chlorophenyl)thiophene-3-carboxylic acid] | < 10
O=C(O)c1c(-c2ccc(Cl)c(Cl)c2)csc1NC(=O)C1CC1 [2-(cyclopropanecarboxamido)-4-(3,4-dichlorophenyl)thiophene-3-carboxylic acid] | < 10
Cc1cc(-c2csc(NC(=O)c3cc4ccccc4o3)c2C(=O)O)c(C)cc1F [2-(benzofuran-2-carboxamido)-4-(4-fluoro-2,5-dimethylphenyl)thiophene-3-carboxylic acid] | < 10
